Source: US5633219A, “5H-pyrrolo(3',4':5,6)(1,4)dithiin o(2,3-C)(1,2,5)thiadiazole-5,7(6H)-dione, compositions containing them and their use as antimicrobial and marine antifouling agents” (The Dow Chemical Company, priority 1996, dated 1997)
≈ marks a conversion by molar mass, not a printed value. Where two headings read alike, the source gives them in different places.

Legend:
[1] = test system: Pseudomonas aeruginosa (Pa); assay: Minimum inhibitory concentration, nutrient agar, Pseudomonas aeruginosa; type: cell-based, Pseudomonas aeruginosa ATCC 10145; settings: 30° C, 48 hours
[2] = test system: Salmonella choleraesuis (Sc); assay: Minimum inhibitory concentration, nutrient agar, Salmonella choleraesuis; type: cell-based, Salmonella choleraesuis ATCC 10708; settings: Salmonella enterica, 30° C, 48 hours
Aspergillus niger (An) = assay: Minimum inhibitory concentration, malt yeast agar, Aspergillus niger; type: cell-based, Aspergillus niger ATCC 16404; settings: 30° C, 72 hours (fungi)
Experimental: (§1) Malt yeast agar is prepared by adding 3 g yeast extract and 45 g malt agar per liter of deionized water. The specific agar is dispensed in 30 mL aliquots into 25×200 mm test tubes, capped and autoclaved for 15 minutes at 115° C.
(§2) The inoculation with the yeast and fungi is accomplished as follows. Cultures of yeast and fungi are incubated for seven days on malt yeast agar at 30° C. These cultures are used to prepare suspensions by the following procedure. A suspension of each organism is prepared by adding 10 mL of sterile saline and 10 microliters of octylphenoxy polyethoxy ethanol to the agar slant of yeast or fungi. The sterile saline/octylphenoxy polyethoxy ethanol solution is then agitated with a sterile swab to suspend the microorganism grown on the slant. Each resulting suspension is diluted into sterile saline (1 part suspension to 9 parts sterile saline). Aliquots of these dilutions are placed in individual wells of Steer's Replicator and petri plates inoculated as previously described. The petri plates are incubated at 30° C. and read after 48 hours for yeast and 72 hours for fungi.

Candida albicans (Ca) = assay: Minimum inhibitory concentration, malt yeast agar, Candida albicans; type: cell-based, Candida albicans ATCC 10231; settings: read-out: Minimum Inhibitory Concentration, Ca
Experimental: as §1, §2

[3] = test system: Penicillium chrysogenum (PC); assay: Minimum inhibitory concentration, malt yeast agar, Penicillium chrysogenum; type: cell-based, Penicillium chrysogenum ATCC 9480; settings: read-out: Minimum Inhibitory Concentration, Pc
Experimental: as §1, §2

[4] = test system: Saccharomyces cerevisiae (Sc); assay: Minimum inhibitory concentration, malt yeast agar, Saccharomyces cerevisiae; type: cell-based, Saccharomyces cerevisiae ATCC 4105; settings: read-out: Minimum Inhibitory Concentration, Sc
Experimental: as §1, §2

Trichoderma viride (Tv) = assay: Minimum inhibitory concentration, malt yeast agar, Trichoderma viride; type: cell-based, Trichoderma viride ATCC 8678; settings: read-out: Minimum Inhibitory Concentration, Tv
Experimental: as §1, §2

[5] = test system: Aureobasidium pullulan (Ap); assay: Minimum inhibitory concentration, malt yeast agar, Aureobasidium pullulan; type: cell-based, Aureobasidium pullulan ATCC 16622; settings: 30° C, 48 hours for yeast and 72 hours for fungi
Experimental: as §1, §2

Fusarium oxysporum (Of) = assay: Minimum inhibitory concentration, malt yeast agar, Fusarium oxysporum; type: cell-based, Fusarium oxysporum ATCC 48112; settings: 30° C, 72 hours (fungi), read-out: Minimum Inhibitory Concentration, Fo
Experimental: as §1, §2

Escherichia coli (Ec) = assay: Minimum inhibitory concentration, nutrient agar, Escherichia coli; settings: 48 h
Proteus vulgaris (Pv) = assay: Minimum inhibitory concentration, nutrient agar, Proteus vulgaris; settings: 48 h
Bacillus subtilis (Bs) = assay: Minimum inhibitory concentration, nutrient agar, Bacillus subtilis; settings: 48 h
[6] = test system: Klebsiella pneumoniae (Kp); assay: Minimum inhibitory concentration, nutrient agar, Klebsiella pneumoniae; settings: 48 h
[7] = test system: Staphylococcus aureus (Sa); assay: Minimum inhibitory concentration, nutrient agar, Staphylococcus aureus; settings: 48 h
[8] = test system: Enterobacter aerogenes (Ea); assay: Minimum inhibitory concentration, nutrient agar, Enterobacter aerogenes; settings: Klebsiella aerogenes, 48 h
[9] = test system: Pseudomonas aeruginosa (PRD-10); assay: Minimum inhibitory concentration, nutrient agar, Pseudomonas aeruginosa PRD-10; settings: 48 h
marine organisms = assay: Marine antifouling rating of coated test panels exposed under a marine surface; settings: scale 10 (completely free of growth) to 0 (completely covered), 1.0 g compound in 9.0 g latex binder
Experimental: Test panels are prepared from clear, rigid polyvinyl chloride film that is 0.381×10^-3 m thick and has one textured surface. The test panels are 0.1524 m by 0.1524 m squares that have 0.00635 m holes punched at corners on 0.127 m centers. A 0.102 square template, with a 0.067 m diameter hole at the center, is attached to the center of the textured surface of the test panels.
A candidate marine antifoulant compound (1.0 g) is stirred into a resinous latex binder (9.0 g). A portion of the compound/binder mixture (1.5 g) is added to the center of the test panel and uniformly spread over the circular area inside the template.
Water is added dropwise as needed to properly spread the compound/binder mixture. The template prevents the compound/binder mixture from spreading beyond the uncovered area. The test panel is allowed to sit for between 10 to 30 minutes until the edge of the spread compound/binder mixture has dried. The template is then removed. The test panel is then allowed to dry for 8 to 12 hours at room temperature.
Two test panels are prepared for each candidate marine antifoulant compound. Two control test panels are also prepared by only treating with the resinous latex binder. One test panel of each candidate marine […] compound is attached over a white background to the topside of an exposure support apparatus. The second test panel is attached over a black background to the underside of the exposure support apparatus. The exposure support apparatus is placed horizontally 0.0254 m under a marine surface with the white background topside facing up. […]
After being removed from the exposure support apparatus, each test panel is inspected and rated for marine organism growth on both the treated and untreated areas of the test panel. The marine organisms present on the treated and untreated areas are noted. The presence of algae spores and bacterial slime are noted but not included in rating each test panel. The test panels are rated on a scale from 10 (representing completely free of marine organism growth) to 0 (representing completely covered with marine organism growth).

[10] = malt yeast agar, 30° C, 48 hours (yeast)
[11] = malt yeast agar, 30° C, 72 hours (fungi)
[12] = pH 6.8, read-out: Minimum inhibitory Concentration, Ec
[13] = pH 8.2, read-out: Minimum inhibitory Concentration, Ec
[14] = pH 6.8, read-out: Minimum inhibitory Concentration, Pv
[15] = pH 8.2, read-out: Minimum inhibitory Concentration, Pv
[16] = pH 6.8, read-out: Minimum inhibitory Concentration, Bs
[17] = pH 8.2, read-out: Minimum inhibitory Concentration, Bs
[18] = pH 6.8, read-out: Minimum inhibitory Concentration, Kp
[19] = pH 8.2, read-out: Minimum inhibitory Concentration, Kp
[20] = pH 6.8, read-out: Minimum inhibitory Concentration, Sa
[21] = pH 8.2, read-out: Minimum inhibitory Concentration, Sa
[22] = pH 6.8, read-out: Minimum inhibitory Concentration, Ea
[23] = pH 8.2, read-out: Minimum inhibitory Concentration, Ea
[24] = pH 6.8, read-out: Minimum inhibitory Concentration, PRD
[25] = pH 8.2, read-out: Minimum inhibitory Concentration, PRD

Structure (SMILES)	MIC ([1]; pH 6.8, nutrient agar)	MIC ([1]; pH 8.2, nutrient agar)	MIC ([2]; pH 6.8, nutrient agar)	MIC ([2]; pH 8.2, nutrient agar)	MIC (Candida albicans (Ca); [10])	MIC [5]	MIC (Escherichia coli (Ec); [12])	MIC (Escherichia coli (Ec); [13])	MIC (Proteus vulgaris (Pv); [14])	MIC (Proteus vulgaris (Pv); [15])	MIC (Bacillus subtilis (Bs); [16])	MIC (Bacillus subtilis (Bs); [17])	MIC [6, 18]	MIC [6, 19]	MIC [7, 20]	MIC [7, 21]	MIC [8, 22]	MIC [8, 23]	MIC [9, 24]	MIC [9, 25]	further results
Cn1c(=O)c2sc3nsnc3sc=2c1=O [II, 6-Methyl-5H-Pyrrolo (3',4':5,6)(1,4)dithiino-(2,3-C)(1,2,5)thiadiazole-5,7(6H) -dione]	> 500 µg/mL	> 500 µg/mL	100 µg/mL (≈ 389 µM)	> 500 µg/mL	< 1 µg/mL	< 1 µg/mL	50 µg/mL (≈ 194 µM)	> 500 µg/mL	25 µg/mL (≈ 97.2 µM)	> 500 µg/mL	< 10 µg/mL	250 µg/mL (≈ 972 µM)	250 µg/mL (≈ 972 µM)	> 500 µg/mL	50 µg/mL (≈ 194 µM)	250 µg/mL (≈ 972 µM)	> 500 µg/mL	> 500 µg/mL	> 500 µg/mL	> 500 µg/mL	MIC (Aspergillus niger (An)): < 1 µg/mL; MIC [3, 11]: < 1 µg/mL; MIC [4, 10]: < 1 µg/mL; MIC (Trichoderma viride (Tv); [11]): < 1 µg/mL; MIC (Fusarium oxysporum (Of)): < 1 µg/mL
O=c1c2sc3nsnc3sc=2c(=O)n1-c1ccccc1 [VI, 6-Phenyl-5H-Pyrrolo(3',4':5,6)(1,4)dithiino-(2,3-C)(1,2,5)thiadiazole-5,7 (6H) -dione]	> 500 µg/mL	> 500 µg/mL	> 500 µg/mL	> 500 µg/mL	250 µg/mL (≈ 783 µM)	< 10 µg/mL	> 500 µg/mL	> 500 µg/mL	> 500 µg/mL	> 500 µg/mL	< 10 µg/mL	100 µg/mL (≈ 313 µM)	> 500 µg/mL	> 500 µg/mL	25 µg/mL (≈ 78.3 µM)	50 µg/mL (≈ 157 µM)	> 500 µg/mL	> 500 µg/mL	> 500 µg/mL	> 500 µg/mL	MIC (Aspergillus niger (An)): < 10 µg/mL; MIC ([3]; 72 h): < 10 µg/mL; MIC [4, 10]: 100 µg/mL (≈ 313 µM); MIC (Trichoderma viride (Tv); [11]): 500 µg/mL (≈ 1570 µM); MIC (Fusarium oxysporum (Of)): 250 µg/mL (≈ 783 µM)
O=c1c2sc3nsnc3sc=2c(=O)n1CCc1ccccc1 [VII, 6-(2-Phenethyl)-5H-Pyrrolo(3',4':5,6)(1,4)dithiino-(2,3-C)(1,2,5)thiadiazole-5,7(6H)-dione]	> 500 µg/mL	> 500 µg/mL	> 500 µg/mL	> 500 µg/mL	> 500 µg/mL	100 µg/mL (≈ 288 µM)	> 500 µg/mL	> 500 µg/mL	> 500 µg/mL	> 500 µg/mL	> 500 µg/mL	> 500 µg/mL	> 500 µg/mL	> 500 µg/mL	> 500 µg/mL	> 500 µg/mL	> 500 µg/mL	> 500 µg/mL	> 500 µg/mL	> 500 µg/mL	MIC (Aspergillus niger (An)): 100 µg/mL (≈ 288 µM); MIC [3, 11]: > 500 µg/mL; MIC [4, 10]: 250 µg/mL (≈ 720 µM); MIC (Trichoderma viride (Tv); [11]): > 500 µg/mL; MIC (Fusarium oxysporum (Of)): > 500 µg/mL
CCCCCCn1c(=O)c2sc3nsnc3sc=2c1=O [V, 6-n-Hexyl-5H-Pyrrolo (3',4':5,6)(1,4)dithiino-(2,3-C)(1,2,5)thiadiazole-5,7(6H) -dione]	> 500 µg/mL	> 500 µg/mL	> 500 µg/mL	> 500 µg/mL		25 µg/mL (≈ 76.3 µM)	> 500 µg/mL	> 500 µg/mL	> 500 µg/mL	> 500 µg/mL	< 10 µg/mL	25 µg/mL (≈ 76.3 µM)	> 500 µg/mL	> 500 µg/mL	< 10 µg/mL	< 10 µg/mL	> 500 µg/mL	> 500 µg/mL	> 500 µg/mL	> 500 µg/mL	MIC (Candida albicans (Ca); 48 h): 25 µg/mL (≈ 76.3 µM); MIC [3, 11]: 25 µg/mL (≈ 76.3 µM); MIC ([4]; 48 h): 25 µg/mL (≈ 76.3 µM); MIC (Trichoderma viride (Tv); 72 h): 50 µg/mL (≈ 153 µM)
CCCn1c(=O)c2sc3nsnc3sc=2c1=O [IV, 6-n-Propyl-5H-Pyrrolo(3',4':5,6)(1,4)dithiino-(2,3-C)(1,2,5)thiadiazole-5,7(6H) -dione]	> 500 µg/mL	> 500 µg/mL	500 µg/mL (≈ 1750 µM)	> 500 µg/mL	< 1 µg/mL	< 1 µg/mL	> 500 µg/mL	> 500 µg/mL	250 µg/mL (≈ 876 µM)	> 500 µg/mL	< 10 µg/mL	250 µg/mL (≈ 876 µM)	> 500 µg/mL	> 500 µg/mL	50 µg/mL (≈ 175 µM)	50 µg/mL (≈ 175 µM)	> 500 µg/mL	> 500 µg/mL	> 500 µg/mL	> 500 µg/mL	MIC (Aspergillus niger (An)): < 1 µg/mL; MIC [3, 11]: < 1 µg/mL; MIC [4, 10]: < 1 µg/mL; MIC (Trichoderma viride (Tv); [11]): < 1 µg/mL; MIC (Fusarium oxysporum (Of)): < 1 µg/mL; Marine Antifouling Rating, Bottom Panel (marine organisms; 6 weeks): 9; Marine Antifouling Rating, Top Panel (marine organisms; 6 weeks): 9; Marine Antifouling Rating, Bottom Panel (marine organisms; 10 weeks): 7; Marine Antifouling Rating, Top Panel (marine organisms; 10 weeks): 7; Marine Antifouling Rating, Bottom Panel (marine organisms; 16 weeks): 7; Marine Antifouling Rating, Top Panel (marine organisms; 16 weeks): 7
CCn1c(=O)c2sc3nsnc3sc=2c1=O [III, 6-Ethyl-5H-Pyrrolo(3',4':5,6)(1,4)dithiino-(2,3-C)(1,2,5)thiadiazole-5,7(6H) -dione]	> 500 µg/mL	> 500 µg/mL	250 µg/mL (≈ 921 µM)	> 500 µg/mL	< 10 µg/mL	< 10 µg/mL	50 µg/mL (≈ 184 µM)	> 500 µg/mL	50 µg/mL (≈ 184 µM)	> 500 µg/mL	25 µg/mL (≈ 92.1 µM)	100 µg/mL (≈ 369 µM)	500 µg/mL (≈ 1840 µM)	> 500 µg/mL	50 µg/mL (≈ 184 µM)	250 µg/mL (≈ 921 µM)	> 500 µg/mL	> 500 µg/mL	> 500 µg/mL	> 500 µg/mL	MIC [3, 11]: 25 µg/mL (≈ 92.1 µM); MIC [4, 10]: < 10 µg/mL; MIC (Trichoderma viride (Tv); [11]): 500 µg/mL (≈ 1840 µM); MIC (Fusarium oxysporum (Of)): 250 µg/mL (≈ 921 µM)
